Results published in patent US20070202085A1, “Systems and methods for monitoring immune responses and predicting outcomes in transplant recipients” (Renovar Incorporated, priority 2006, published 2007).
Where “and” joins values, the source holds several entries; their conditions need not be identical. Equal entries are not always repeated.

Columns and labels:
[1] = system: kidney allograft; test: Protocol kidney biopsy after transplantation; assay type: in vivo, human; conditions: for M12 biopsy: kidney biopsy 12 months after transplantation, per patient
Description: (§1) Patients and Protocol Therapy. Primary renal allograft patients received a non-HLA-identical kidney from either cadaveric or living donors. Subjects were 18-60 years of age and had between 1-6 MHC antigen mismatches with the kidney allograft. Kidney transplant recipients were given CAMPATH-1H (Alemtuzumab, ILEX Oncology, Inc.) at day −1 and day 0 of transplant (40 mg total dose), followed by long-term treatment with rapamycin at levels averaging 9 ng/ml. […] Another […] patients were enrolled in the control arm. The latter group received anti-CD25 (Basiliximab, Novartis, East Hanover, N.J.) induction therapy, along with conventional long-term immunosuppressants (CsA, steroids, and MMF). All patients gave written informed consent to participate in the study. The protocol was given approval by the Institutional Review Board at the University of Wisconsin-Madison.
Among the 15 CAMPATH-treated recipients, 10 used a single drug (9 with Sirolimus and 1 with Tacrolimus) for their maintenance immunosuppressive therapy. […] In the control group, all 8 patients were treated with a combination of CsA, MMF and prednisone for their immunosuppressive maintenance.

[2] = system: peripheral blood T cells (CD3), B cells (CD20), monocytes (CD14), lymphocytes; test: Leukocyte repopulation in peripheral blood of renal allograft patients; assay type: in vivo, human
Description: as §1
In renal allograft recipients treated with CAMPATH-1H, immunodepletion is profound, with a 2-3 log reduction in peripheral lymphocytes at the outset (See, e.g., Brett et al., Immunology 1996, 88,13). […] Although monocytes and B cells recovered to baseline numbers by 3 and 12-months, respectively, T cell levels were slow to repopulate, recovering to approximately 50% baseline by 36 months. CD4+ and CD8+ T cell subsets were at an approximate 2:1 ratio pre-transplant, yet CD8+ T cells recovered at a relatively constant 1:1 ratio with CD4+ cells in CAMPATH-treated patients (See FIG. 6b).

[3] = system: recipient T cells (alloreactivity to donor antigen); test: IFN-γ kinetics assay in the 5-day CFSE-MLR of renal allograft patients; assay type: cell-based, human; parameters: key to IFN-γ assay: HYPO: hyporesponsive; EQL: equal response to donor and third-party antigen; HYPR: hyperresponsive to donor Ag; UN: no response to donor Ag; conditions: for IFN-γ assay: per patient, month 12, response to donor versus third-party antigen
Description: (§2) CFSE-MLR Assay. Blood was collected at 12 months post-transplant, and PBMC's purified by Ficoll gradient separation. Recipient PBMC's were labeled with 5.0 μM CFSE for 10 minutes at 37° C., upon which 1 ml of cold FCS was added to stop further staining. Cells were then washed once in complete media, and used as responder cells in an MLR in which both proliferation and kinetics of cytokine expression were measured in response to irradiated donor, third party, or autologous stimulator PBMC's. The number of class I and class II MHC mismatches between host/donor and host/third party were kept as consistent as possible with the available third parties from which to choose. A total of 2×10^5 responder and 2×10^5 stimulator cells/well were added to a 96-well round-bottom plate, in a total of 200 μl/well complete RPMI with 15% FCS. Cultures were set up in quintuplet wells such that the supernatants could be collected every 24 hours during the 5-day MLR. On day 5, T cell proliferation was measured by flow cytometry using PE-conjugated anti-CD3, CD4, and CD8 antibodies. Live cells were gated out by PI, and subsequent PE-positive cells in the lymphocyte gate were analyzed for their loss of CFSE intensity. On average, 4000 live lymphocytes were acquired for analysis using CellQuest software and a FACSCAN flow cytometer. Proliferation was analyzed using FlowJo software (Tree Star, Inc.).
Cytokine Kinetics Test. Cytokine expression levels in the MLR supernatants were measured using a multi-cytokine fluorescent bead detection system (BeadLyte, Upstate, Inc.). Fifty μl of Day 1-5 supernatants were utilized to analyze the cytokines: IL-1β, IL-2, IL-4, IL-6, IL-8, IL-10, IL-12, GM-CSF, TNF-α, and IFN-γ.
Additional information was obtained from the 5-day CFSE-MLR by collecting supernatants at 24-hour intervals and analyzing them for the expression of IFN-γ. The kinetic patterning gave a comprehensive picture of alloreactivity which could be categorized into 4 distinct groups: 1) patients who responded equally well to donor and third party antigen, 2) those who were hypo-responsive to donor, 3) those who were hyper-responsive to donor, and 4) those who were completely unresponsive to donor as opposed to third party antigen (See FIG. 4). […] Statistically, there was no bias in the hypo- (P=0.51) or hyper-responsive (P=0.73) groups using the 1-tailed Fisher's exact test. […] Therefore, the donor unresponsiveness of these 4 patients cannot simply be attributed to low T cell counts. Taken together, the present invention provides that CAMPATH-rapamycin immunotherapy promotes T cell unresponsiveness in at least a subset of renal allograft recipients.

[4] = system: recipient T cells (alloreactivity to donor antigen); test: GM-CSF kinetics assay in the 5-day CFSE-MLR of renal allograft patients; assay type: cell-based, human; parameters: key: HYPO: hyporesponsive; EQL: equal response to donor and third-party antigen; HYPR: hyperresponsive to donor Ag; UN: no response to donor Ag; conditions: per patient, month 12, response to donor versus third-party antigen
Description: as §2, with “Cultures were set up in quintuplet wells such that the supernatants could be collected every 24 hours during the 5-day MLR.” left out, “On average, 4000 live lymphocytes were acquired for analysis using CellQuest software and a FACSCAN flow cytometer.” left out
Cytokine Kinetics Test. Cytokine expression levels in the MLR supernatants were measured using a multi-cytokine fluorescent bead detection system (BeadLyte, Upstate, Inc.). […]

[5] = system: peripheral blood T cells (CD3), B cells (CD20), monocytes (CD14), lymphocytes; conditions: renal allograft recipients, at the outset; cited from earlier work
[6] = system: CD3+, CD4+ and CD8+ recipient T cells; test: CFSE-MLR proliferation assay with recipient PBMC; assay type: cell-based, human; conditions: patient UW19, response to third party antigen, 12 months
Description: To examine the proliferative response of host T cells to donor antigen, purified responder PBMC's were labeled with CFSE. In an effort to keep the APC source constant, only PBMC's from living donors and third parties were used.
For simplicity, the loss of CFSE intensity was designated “percent proliferation” or “percent CFSE low” (e.g., even though, generally, this is a measure of the actual number of daughter cells initially involved in the response).

[7] = maintenance Tacrolimus, prednisone
[8] = IFN-γ kinetics, 12 months, n=15 Campath, n=8 Control

Campath: humanized monoclonal antibody that binds CD52; induction therapy followed by long-term rapamycin
M12 biopsy [1]: normal histology
M12 biopsy ([1]; maintenance Sirolimus): Normal
M12 biopsy ([1]; maintenance Sirolimus, MMF): C4d+, humoral rejection
M12 biopsy ([1]; maintenance Tacrolimus): Normal
M12 biopsy ([1]; maintenance Tacrolimus, MMF): Normal
M12 biopsy [1, 7]: Acute rejection Banff 1A
M06 biopsy ([1]; kidney biopsy at month 6, M12 biopsy declined): M06 Biopsy Normal Declined M12
T cell levels recovered ([2]; by 36 months): approximately 50 % baseline
lymphocyte repopulation (total lymphocyte count versus pre-transplant) ([2]; month 12 post-transplant): below 50 % baseline
time at which B cells recovered to baseline numbers ([2]; peripheral blood, 29 patients): ≤ 12 months
time at which monocytes recovered to baseline numbers ([2]; peripheral blood, 29 patients): ≤ 3 months
Donor-specific nonresponsiveness (number of patients) [3, 8]: 4
Equal response (number of patients) [3, 8]: 1
Hyper-response (number of patients) [3, 8]: 2
Hypo-response (number of patients) [3, 8]: 8
Hyper-response (number of patients) ([3]; IFN-γ kinetics, 12 months, n=15 Campath, n=8 Control, listed as CAMPATH): Two
IFN-γ assay ([3]; maintenance Sirolimus): HYPO (3×) and HYPR (2×) and UN (3×) and EQL
IFN-γ assay ([3]; maintenance Sirolimus, MMF): HYPO
IFN-γ assay ([3]; maintenance Tacrolimus): HYPO
IFN-γ assay ([3]; maintenance Tacrolimus, MMF): HYPO
IFN-γ assay ([3]; maintenance Tacrolimus, MMF, prednisone): HYPO
IFN-γ assay [3, 7]: UN
GM-CSF assay [4]: UN (4×) and HYPO (7×) and HYPR (2×) and EQL^a and EQL
reduction in peripheral lymphocytes [5]: 2-3 log
percent proliferation of CD3+ cells [6]: 6.7%
percent proliferation of CD4+ cells [6]: 7.1%
percent proliferation of CD8+ cells [6]: 5.1%
